{"source": "patent US7803381B2", "about": "“Retro-inverso gonadotropin-releasing hormone peptide and vaccine composition” (Shimoda Biotech (Pty) Ltd., priority 2002, dated 2010)", "key": {"human GnRH receptor": {"target": "T1, human GnRH receptor (Homo sapiens, UniProt P30968)", "T1 construct": "expressed in transfected cells; host or cells: COS-1 cells, transient transfection (DEAE-Dextran), vector pcDNA I/AMP", "T1 sequence (P30968 1-328)": "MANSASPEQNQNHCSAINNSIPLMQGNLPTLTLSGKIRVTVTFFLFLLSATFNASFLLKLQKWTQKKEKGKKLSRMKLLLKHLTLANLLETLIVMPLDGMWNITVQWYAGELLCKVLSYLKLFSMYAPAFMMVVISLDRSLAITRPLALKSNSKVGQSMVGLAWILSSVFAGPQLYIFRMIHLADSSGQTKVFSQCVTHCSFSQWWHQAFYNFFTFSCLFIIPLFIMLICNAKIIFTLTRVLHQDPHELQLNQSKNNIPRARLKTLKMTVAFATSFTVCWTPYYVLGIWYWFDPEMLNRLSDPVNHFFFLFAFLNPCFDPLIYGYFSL", "experiment": "GnRH analog-stimulated inositol phosphate (IP) accumulation in COS-1 cells transiently transfected with human GnRH receptor", "format": "cell-based", "method": "COS-1 cells were cultured in Dulbecco's modified Eagle's medium/DMEM (Life Technologies, Inc., Paisley, Scotland), supplemented with 10% foetal calf serum (FCS, Delta bioproducts, Kempton Park, South Africa) in a 10% CO2 incubator at 37° C. Cells were harvested with 0.05% trypsin. For all transient transfections 2×10^5 cells/well were seeded into 12-well plates and cultured overnight in DMEM containing 10% FCS and antibiotics (2 mg/ml streptomycin sulphate, 4000 U/ml sodium benzyl penicillin). COS-1 cells were transiently transfected using the DEAE-Dextran method, as previously described.\nThe transfected COS-1 cells (2×10^5 cells/well) were incubated overnight in 0.5 ml Medium 199 (Life Technologies Inc.) with antibiotics and myo-[2-^3H] inositol (1 μCi/well, Amersham Pharmacia Biotech) as previously described. […] Aspirating the medium and addition of 10 mM formic acid (1 ml/well) terminated the incubation. Inositol phosphates separated from the formic acid extract on DOWEX-1 ion exchange columns and eluted into scintillation liquid (Quicksafe, Zinsser Analytical, Frankfurt, Germany) and the radioactivity was counted.\nIP assays were performed in duplicate and four-parameter nonlinear curve fitting (PRISM, GraphPad Software, In., San Diego, Calif.) was used to estimate the peptide concentrations required to stimulate half-maximal IP production (EC50). […]"}, "[1]": {"test_system": "purified rabbit anti-RI-GnRH antibodies", "experiment": "Inhibition immunoassay (ELISA): peptide displacement of anti-RI-GnRH antibodies from fixed RI-GnRH", "format": "binding", "conditions": "for inhibition by free peptide of anti-RI-GnRH antibody binding to fixed RI-GnRH: ELISA, increasing peptide concentrations", "method": "(§1) Microtitre plates were coated with RI-GnRH peptide (5 μg/ml) in 100 mM Na2CO3 (pH=9.6) and incubated for one hour at 37° C. After several washes with PBS (pH=7.4) plates were saturated for one hour with 1% BSA in PBS supplemented with Tween 20 (0.1% wt/volume) at 37° C. Sera from immunised rabbits and mice at different dilutions (1:500 to 1:3200) were added to the plates and incubated for one hour at 37° C. […] Washed plates were reacted with 3,3′,5,5′-tetramethyl benzidine (TMB) and […] as substrate.\n(§2) Nonspecific inhibition was determined with an unrelated L peptide, […](V9C), and an unrelated RI peptide ([…]. Various dilutions of anti-RI-GnRH antibodies were preincubated with increasing concentrations of peptide (3.9-1000 nM) for 1 h at 37° C. The percent inhibition of signal was calculated from the amount of anti-RI-GnRH antibodies that bound RI-GnRH in the presence of increasing peptide concentrations against the amount of anti-RI-GnRH antibodies that bound RI-GnRH in the absence of competing peptide."}, "BALB/c mice": {"test_system": "BALB/c mice", "experiment": "Second mice example: immunisation of BALB/c mice with unconjugated RI-GnRH coinjected with CpG, titre and fertility", "format": "in vivo, mouse", "conditions": "for Titre 1 (d 37): individual mice 1-6, without complete Freund's adjuvant", "method": "In the second experiment, four week old BALB/c mice (3 of each sex) were immunised with 25 μg/mouse unconjugated RI-GnRH coinjected with CpG (50 μg/mouse) oligonucleotide and m-BSA. A control group (2 of each sex) received saline buffer together with 50 μg/mouse CpG oligonucleotide as adjuvant (Klinman, et al., 1999) supplemented with 200 μg m-BSA. All injections were given in 10% v/v IFA. Mice were immunised at days 1, 15 and 30. They were bled and mated with partners of proven fertility at day 37 after the initial immunisation.\nas §1"}, "male BALB/c mice": {"test_system": "male BALB/c mice", "format": "in vivo, mouse", "method": "Nine male BALB/c mice (Janvier, France), nine weeks of age, were immunised intraperitoneally (i.p.) with either 25 μg/mouse RI-GnRH conjugated with MAO (n=5) or saline buffer (n=4). The primary injections were given in CFA supplemented with 200 μg m-BSA. These were followed by two-booster injections in IFA and m-BSA at day 15 and 45 after primary injection. The mice were weighed and bled one week after each immunisation. On day 45, males injected with RI-GnRH conjugate or saline were placed with females of proven fertility and litters observed. The males were sacrificed 75 days after primary injection for histological examination.\nas §1, §2\nMale mice were sacrificed and the testes dissected. Testes were weighed and fixed in formalin/saline solution (12%) for routine histology. The fixed testes were dehydrated, sectioned (5 μm thick) and stained with haematoxylin and eosin."}, "rabbits": {"test_system": "rabbits", "experiment": "Rabbit immunisation with RI-GnRH conjugated with MAO", "format": "in vivo", "conditions": "100 μg/rabbit conjugated with MAO, CFA then IFA boosters", "method": "Two adult female rabbits (Harlan, Leicestershire, UK) were immunised with RI-GnRH (100 μg/rabbit) conjugated with MAO. The primary injections were given subcutaneously in complete Freund's adjuvant (CFA). These were followed by three booster injections (1 ml/rabbit) in incomplete Freund's adjuvant (IFA) at two week intervals. The last booster injection was given four weeks later using 200 μg free peptide together with 1 mg methylated-BSA (m-BSA). The rabbits were bled one week after each injection. Two experiments were performed with mice to test whether immunization with RI-GnRH would generate GnRH antibodies, and different methods of immunization with RI-GnRH were tested.\nas §1"}, "GnRH [2]": {"target": "T2, GnRH (Homo sapiens, UniProt P01148)", "T2 construct": "made in house; host or cells: chemical solid-phase synthesis (University of Cape Town); receptor expressed in transfected COS-1 cells", "experiment": "Antiserum/antibody inhibition of GnRH stimulated IP accumulation in COS-1 cells transfected with human GnRH receptor", "format": "cell-based, mammalian", "method": "(§3) The transfected COS-1 cells (2×10^5 cells/well) were incubated overnight in 0.5 ml Medium 199 (Life Technologies Inc.) with antibiotics and myo-[2-^3H] inositol (1 μCi/well, Amersham Pharmacia Biotech) as previously described. The labelled cells were incubated with various concentrations of GnRH-analogs for one hour at 37° C. in the presence of LiCl as described. Aspirating the medium and addition of 10 mM formic acid (1 ml/well) terminated the incubation. Inositol phosphates separated from the formic acid extract on DOWEX-1 ion exchange columns and eluted into scintillation liquid (Quicksafe, Zinsser Analytical, Frankfurt, Germany) and the radioactivity was counted. […] Serum from the same rabbits before immunisation was also tested. […] After one hour the incubation was terminated with formic acid and inositol phosphates were separated and counted as described. […] The mixture was added to labelled cells, and the inhibition of IP production was calculated. […] Purified anti-RI-GnRH antibodies were tested for their ability to discriminate among GnRH, [[…]]GnRH, and GnRH II. […] Stimulating with these concentrations [half-maximal effective concentrations (EC50)] in the absence of antibody produced similar levels of IP counts. […] The mixture was added to labelled cells and the inhibition of IP production calculated as described. IP assays were performed in duplicate and four-parameter nonlinear curve fitting (PRISM, GraphPad Software, In., San Diego, Calif.) was used to estimate the peptide concentrations required to stimulate half-maximal IP production (EC50). […] All kinetic analysis was performed with BiaEvaluation 3 (BIACORE) software, using the standard χ^2 statistic test. […] All statistical analyses were performed with StatView, using a standard correlation program."}, "GnRH [3]": {"test_system": "GnRH", "experiment": "Antiserum/antibody inhibition of GnRH stimulated IP accumulation in COS-1 cells transfected with human GnRH receptor", "format": "cell-based, mammalian", "conditions": "5 nM antibody fraction; 0.3 nM GnRH, 1 nM [Gln^8]GnRH, 1 nM GnRH II", "method": "as §3"}, "RI-GnRH peptide": {"test_system": "RI-GnRH peptide", "experiment": "ELISA binding of purified anti-RI-GnRH antibody fractions to RI-GnRH", "conditions": "ELISA titre", "method": "as §1"}}, "note": "“And” between values parts separate entries of the source, which are not always exact repeats. Identical values can stand only once. “Also recorded” adds a separate entry of the source. Non-standard residues stand in square brackets, D forms with d. Residues, ends and D or L forms follow the SMILES beside them. No end group written: not given here. pGlu = O=C1CC[C@@H](C(=O)O)N1"}
{"molecule": "NC(=O)CNC(=O)[C@@H]1CCCN1C(=O)[C@H](Cc1ccc(O)cc1)NC(=O)[C@H](Cc1c[nH]c2ccccc12)NC(=O)CNC(=O)[C@H](Cc1c[nH]cn1)NC(=O)[C@H](CO)NC(=O)[C@H](Cc1c[nH]c2ccccc12)NC(=O)[C@H](Cc1c[nH]cn1)NC(=O)[C@@H]1CCC(=O)N1", "note": "[GnRH II, [His^5, Trp^7, Tyr^8]GnRH, reference compound] ([pGlu]HWSHGWYPG-NH2)", "values": [{"measurement": "EC50", "setting": "human GnRH receptor; absence of antibody, read-out: EC50 of ligand-stimulated IP accumulation", "value": 1, "unit": "nM"}, {"measurement": "inhibition by free peptide of anti-RI-GnRH antibody binding to fixed RI-GnRH", "setting": "[1]", "value": "cross-react less"}]}
{"molecule": "CC(C)C[C@H](NC(=O)CNC(=O)[C@H](Cc1ccc(O)cc1)NC(=O)[C@H](CO)NC(=O)[C@H](Cc1c[nH]c2ccccc12)NC(=O)[C@H](Cc1c[nH]cn1)NC(=O)[C@@H]1CCC(=O)N1)C(=O)N[C@@H](CCCNC(=N)N)C(=O)N1CCC[C@H]1C(=O)NCC(N)=O", "note": "[GnRH]", "values": [{"measurement": "inhibition by free peptide of anti-RI-GnRH antibody binding to fixed RI-GnRH", "setting": "[1]", "value": "could also inhibit"}]}
{"molecule": "GPRLGYSWHEC (G[dP][dR][dL]G[dY][dS][dW][dH][dE][dC]; not fully specified) [RI-GnRH, retro-inverso GnRH peptide with additional C-terminal cysteine for conjugation]", "values": [{"measurement": "production of anti-RI-GnRH antibodies", "setting": "BALB/c mice; 25 μg/mouse unconjugated RI-GnRH with CpG 50 μg/mouse, m-BSA, 10% IFA", "value": "produced anti-RI-GnRH antibodies, which cross-reacted with the native hormone"}, {"measurement": "mice infertile until day 220", "setting": "BALB/c mice; boosted at day 97", "value": "four mice stayed infertile"}, {"measurement": "infertile mice on day 120", "setting": "BALB/c mice; boosted at day 97, mated one week thereafter", "value": "Two mice were infertile"}, {"measurement": "Titre 1 (d 37)", "setting": "BALB/c mice; female mice", "value": "3.00E−05 and 1.30E−04 and 1.00E−02"}, {"measurement": "Titre 1 (d 37)", "setting": "BALB/c mice; male mice", "value": "3.00E−05 and 1.00E−03 and 5.00E−04"}, {"measurement": "fertility after pairing at day 37", "setting": "BALB/c mice; male and female mice paired with normal partners", "value": "All mice were infertile after pairing at day 37, except for one"}, {"measurement": "adverse side effects or changes in body weight", "setting": "BALB/c mice; mouse, in vivo", "value": "no indication of adverse side effects or changes in body weight"}, {"measurement": "litters from further matings up to day 90", "setting": "BALB/c mice; mouse, in vivo", "value": "no litters"}, {"measurement": "effect of RI-GnRH peptide alone on IP accumulation / GnRH stimulated IP accumulation", "setting": "human GnRH receptor; data not shown, listed as RI-GnRH peptide", "value": "could not stimulate or inhibit; also recorded: did not stimulate or inhibit"}, {"measurement": "development of anti-RI-GnRH antibodies", "setting": "male BALB/c mice; 25 μg/mouse conjugated with MAO, i.p., CFA + m-BSA", "value": "All five immunised male mice developed anti-RI-GnRH antibodies"}, {"measurement": "testis histology", "setting": "male BALB/c mice; males sacrificed 75 days after primary injection", "value": "atrophied Leydig and Sertoli cells, less spermatogonia and primary spermatocytes, presence of very few spermatids and reduced diameters of the seminiferous tubules"}, {"measurement": "infertile immunised male mice", "setting": "male BALB/c mice; mated with normal females from day 45", "value": "Two of the group of five"}, {"measurement": "adverse side effects or changes in body weight", "setting": "male BALB/c mice; mouse, in vivo", "value": "no indication of adverse side effects or changes in body weight"}, {"measurement": "testis weight", "setting": "male BALB/c mice; mouse, in vivo", "value": "reduced testis weight"}, {"measurement": "anti-RI-GnRH antibody response", "setting": "rabbits", "value": "high titre"}, {"measurement": "inhibition by free peptide of anti-RI-GnRH antibody binding to fixed RI-GnRH", "setting": "[1]", "value": "incrementally decreased"}]}
{"molecule": "KSCN", "values": [{"measurement": "IC50", "setting": "GnRH [2]; 0.3 nM GnRH, read-out: antibody concentration inhibiting 50% of GnRH-stimulated IP accumulation", "value": 1.7, "unit": "nM"}, {"measurement": "inhibition of GnRH (analog) stimulated IP production by eluted antibody fractions", "setting": "GnRH [3]", "value": "most effective"}, {"measurement": "cross-reaction of eluted antibody fractions with GnRH", "setting": "[1]; inhibition ELISA", "value": "cross-reacted most efficiently"}]}
{"molecule": "VRTVEDGEC [V9C, unrelated L peptide]", "values": [{"measurement": "inhibition by free peptide of anti-RI-GnRH antibody binding to fixed RI-GnRH", "setting": "[1]", "value": "not significantly inhibited; also recorded: low inhibition"}]}
{"molecule": "glycine", "values": [{"measurement": "fold suppression of EC50 of GnRH-stimulated IP accumulation", "setting": "GnRH [2]; 5 nM antibody fraction", "value": 4.4, "unit": "fold"}, {"measurement": "affinity of antibody populations for RI-GnRH peptide", "setting": "RI-GnRH peptide", "value": "higher affinity than those eluted with KSCN"}]}
